Data as given in patent US20250100996A1, “HETEROCYCLOALKYL AND HETEROARYL COMPOUNDS AND PHARMACEUTICAL COMPOSITIONS THAT MODULATE IKZF2” (Plexium, Inc., priority 2021, published 2025).
pEC50: −log10 of the molar value.

Assays:
[1] = biological target: T1, human E3 ligase component cereblon (CRBN) (Homo sapiens, UniProt Q96SW2); assay: Cereblon (CRBN) target engagement, NanoBRET TE Intracellular E3 Ligase Assay in transfected HEK-293T cells; settings: read-out: CRBN Binding EC50
T1 construct: host or cells: HEK293T
T1 sequence (Q96SW2 whole entry): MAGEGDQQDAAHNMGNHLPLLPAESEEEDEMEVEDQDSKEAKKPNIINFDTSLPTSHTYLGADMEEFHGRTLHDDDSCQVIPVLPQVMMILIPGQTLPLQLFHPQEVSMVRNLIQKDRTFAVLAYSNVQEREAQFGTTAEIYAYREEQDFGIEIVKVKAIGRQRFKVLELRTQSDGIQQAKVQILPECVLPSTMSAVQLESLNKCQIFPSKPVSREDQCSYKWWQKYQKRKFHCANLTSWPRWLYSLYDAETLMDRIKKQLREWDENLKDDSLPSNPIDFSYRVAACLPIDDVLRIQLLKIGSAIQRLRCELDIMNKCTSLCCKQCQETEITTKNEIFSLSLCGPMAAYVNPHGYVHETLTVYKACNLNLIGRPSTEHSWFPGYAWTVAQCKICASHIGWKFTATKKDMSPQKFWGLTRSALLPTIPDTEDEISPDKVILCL
T1 sequence (Q16531 whole entry partner): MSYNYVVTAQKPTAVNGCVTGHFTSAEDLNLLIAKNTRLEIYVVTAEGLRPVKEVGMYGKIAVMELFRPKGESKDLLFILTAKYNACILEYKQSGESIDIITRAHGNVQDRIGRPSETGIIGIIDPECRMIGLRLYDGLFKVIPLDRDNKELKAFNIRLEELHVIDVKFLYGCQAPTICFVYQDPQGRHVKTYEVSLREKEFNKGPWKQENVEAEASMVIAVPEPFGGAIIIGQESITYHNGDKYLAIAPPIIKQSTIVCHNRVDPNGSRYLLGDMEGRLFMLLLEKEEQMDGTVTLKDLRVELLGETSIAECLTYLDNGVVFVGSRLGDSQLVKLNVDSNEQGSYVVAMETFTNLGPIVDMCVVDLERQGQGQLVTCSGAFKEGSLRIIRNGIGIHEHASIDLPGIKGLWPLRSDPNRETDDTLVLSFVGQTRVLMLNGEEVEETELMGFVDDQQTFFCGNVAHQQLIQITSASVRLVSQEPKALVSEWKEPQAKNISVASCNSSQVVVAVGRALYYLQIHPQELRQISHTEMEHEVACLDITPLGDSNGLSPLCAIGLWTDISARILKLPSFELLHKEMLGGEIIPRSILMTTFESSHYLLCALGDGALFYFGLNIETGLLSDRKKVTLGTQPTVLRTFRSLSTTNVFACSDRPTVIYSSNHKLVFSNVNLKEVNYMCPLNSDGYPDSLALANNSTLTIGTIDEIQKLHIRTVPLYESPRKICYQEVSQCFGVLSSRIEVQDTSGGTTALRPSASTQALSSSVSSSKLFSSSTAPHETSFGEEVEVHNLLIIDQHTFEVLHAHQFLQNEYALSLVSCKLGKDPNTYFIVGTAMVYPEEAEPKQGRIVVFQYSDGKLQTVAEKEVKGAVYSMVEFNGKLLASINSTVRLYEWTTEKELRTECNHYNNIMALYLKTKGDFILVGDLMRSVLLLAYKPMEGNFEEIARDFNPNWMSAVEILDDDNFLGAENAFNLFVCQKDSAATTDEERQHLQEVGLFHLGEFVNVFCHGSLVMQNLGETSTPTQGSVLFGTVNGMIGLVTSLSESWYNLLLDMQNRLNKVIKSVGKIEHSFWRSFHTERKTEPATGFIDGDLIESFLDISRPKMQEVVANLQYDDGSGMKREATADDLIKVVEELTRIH
Procedure, shortened: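 Tracer displacement was read as the 610/450 nm BRET signal after 2 h at 37° C with an 11-point dilution series, typically 10 μM to 100 pM. Live HEK-293T cells expressed NanoLuc fused N-terminal to human CRBN together with DDB1. IC50 was fitted with a four-parameter logistic model.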

IKZF1 (Ikaros) = biological target: T2, IKZF1 (Ikaros) (Homo sapiens, UniProt Q13422); assay: IKZF1 reporter degradation assay (HEK 293T IKZF1-mNeonGreen reporter cell line); assay type: cell-based; settings: HEK 293T IKZF1-mNeonGreen reporter, 24 hours incubation
T2 construct: mScarlet (behind P2A) (C, cleaved yes); expressed in transfected cells
T2 sequence (Q96SW2 whole entry partner): as the sequence (Q96SW2 whole entry) above
T2 sequence (Q16531 whole entry partner): as the sequence (Q16531 whole entry partner) above
T2 sequence (Q13422 whole entry): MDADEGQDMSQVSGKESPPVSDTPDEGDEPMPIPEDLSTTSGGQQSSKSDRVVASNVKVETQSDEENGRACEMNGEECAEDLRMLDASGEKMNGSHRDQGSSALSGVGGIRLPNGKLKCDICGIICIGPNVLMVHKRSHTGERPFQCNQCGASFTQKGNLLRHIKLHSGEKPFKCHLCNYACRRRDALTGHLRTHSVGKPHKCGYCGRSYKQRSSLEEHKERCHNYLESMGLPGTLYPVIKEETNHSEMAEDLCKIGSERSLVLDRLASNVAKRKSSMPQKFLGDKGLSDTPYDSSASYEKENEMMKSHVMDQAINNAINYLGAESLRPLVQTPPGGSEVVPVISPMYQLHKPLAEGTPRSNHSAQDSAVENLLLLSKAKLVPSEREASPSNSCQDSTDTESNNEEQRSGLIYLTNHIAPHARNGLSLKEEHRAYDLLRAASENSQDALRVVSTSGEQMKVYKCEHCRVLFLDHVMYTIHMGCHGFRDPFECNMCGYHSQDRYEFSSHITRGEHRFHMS
Text: Polycistronic plasmids were constructed for the mammalian expression of fluorescent reporter fusions of human transcription factors IKZF1 (Ikaros), IKZF2 (Helios), and IKZF3 (Aiolos). The respective protein sequences had their C-terminal end joined to a GGGGS linker repeated three times followed by mNeonGreen, P2A sequence, and mScarlet. The DNA sequences of the open reading frames are as follows:
IKZF1, IKZF2, and IKZF3 constructs were cloned into the UCOE Hygromycin expression vectors (Millipore Sigma). Reporter constructs were transfected using cationic lipid reagents into adherent HEK 293T cells and stable integrants were selected by treatment with 200 μg/mL hygromycin B. Clonal populations were obtained from the population of stable integrants either by limiting dilution or fluorescence activated cell sorting.
The clonal stable cell lines were maintained under constant 200 μg/mL hygromycin B selection while being passaged for use in the degradation assays. […] The fluorescence intensity of the IKZF1/2/3-mNeonGreen (FITC channel) and mScarlet (PE channel) reporters were routinely analyzed by flow cytometry to confirm consistent expression levels between experiments.
The IKZF1/IKZF2/IKZF3 degradation assays were carried out by harvesting the HEK 293T reporter cell lines and resuspending the cells in media formulated for reduced background fluorescence (FluoroBrite; Thermo Fisher). The respective cell lines were seeded at a density of 4000 cells/well into black-walled 384-well optical grade assay tissue culture plates. The cells were incubated overnight at 37° C. to allow for attachment to the assay plate. Dilutions of the compounds were prepared in DMSO from 10 mM compound stocks. The assay plates were treated with appropriate concentrations of the compounds by dispensing the DMSO dilutions in quadruplicate wells with an upper limit of 0.5% final DMSO.
After 24 hours incubation with the compounds, the assay plates were imaged on an ImageXpress Pico microscopy system (cells maintained at 37° C. during imaging) to obtain the fluorescent readouts. The assay plates were imaged in the FITC and Tetramethylrhodamine (TRITC) channels to obtain the mNeonGreen fluorescence intensity (reporter degradation data) and mScarlet fluorescence intensity (for cell segmentation). 293T-IKZF1 and 293T-IKZF3 reporter cell lines were imaged with exposures of 500 milliseconds (ms) for both FITC and TRITC channels, while the 293T-IKZF2 reporter cell line was imaged with exposures of 1000 ms for FITC and 1250 ms for TRITC. The resulting data was analyzed with Cell Reporter Xpress software using the 2-channel cell scoring analysis with a “percent positive” readout. The TRITC channel was selected for the “nuclei” segmentation with a threshold of 20 while the FITC channel was selected for the “Marker 1” segmentation and a threshold of 100 for the IKZF1 and IKZF3 reporter lines. […] The minimum segmentation width was set to 6 micrometers and the maximum segmentation width was set to 15 micrometers for all cell lines. The DC50 calculations were determined by regression to best fit four-parameter logistic curves using GraphPad Prism.

IKZF2 (Helios) [2] = biological target: T3, IKZF2 (Helios) (Homo sapiens, UniProt Q9UKS7); assay: IKZF2 reporter degradation assay (HEK 293T IKZF2-mNeonGreen reporter cell line); assay type: cell-based; settings: HEK 293T IKZF2-mNeonGreen reporter, 24 hours incubation
T3 construct: Leu-Asp junction (codons ctcgac before the linker); mScarlet (behind P2A) (C, cleaved yes); expressed in transfected cells
T3 sequence (Q9UKS7 whole entry): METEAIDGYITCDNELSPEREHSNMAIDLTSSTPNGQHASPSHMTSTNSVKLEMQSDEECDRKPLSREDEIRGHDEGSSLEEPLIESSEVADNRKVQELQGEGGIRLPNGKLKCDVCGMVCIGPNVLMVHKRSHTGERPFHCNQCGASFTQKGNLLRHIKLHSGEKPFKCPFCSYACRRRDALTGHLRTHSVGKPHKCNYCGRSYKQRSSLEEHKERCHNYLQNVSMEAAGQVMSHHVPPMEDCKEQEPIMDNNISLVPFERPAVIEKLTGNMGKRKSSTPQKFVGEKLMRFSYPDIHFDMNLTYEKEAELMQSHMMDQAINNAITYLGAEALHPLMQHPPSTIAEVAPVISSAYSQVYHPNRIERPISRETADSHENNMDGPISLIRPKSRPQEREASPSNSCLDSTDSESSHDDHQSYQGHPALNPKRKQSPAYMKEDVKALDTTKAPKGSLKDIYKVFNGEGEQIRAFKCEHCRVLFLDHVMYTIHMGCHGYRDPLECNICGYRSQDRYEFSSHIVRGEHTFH
T3 sequence (Q96SW2 whole entry, further chain): as the sequence (Q96SW2 whole entry) above
T3 sequence (Q16531 whole entry partner): as the sequence (Q16531 whole entry partner) above
Procedure, shortened: (§1)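 In reporter HEK 293T clones, the FITC exposure was 1000 ms for the IKZF2 line and 500 ms for the IKZF1 and IKZF3 lines. Imaging followed 24 h of compound treatment, and percent-positive scoring was fitted to a four-parameter logistic curve for DC50.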

IKZF3 (Aiolos) = biological target: T4, IKZF3 (Aiolos) (Homo sapiens, UniProt Q9UKT9); assay: IKZF3 reporter degradation assay (HEK 293T IKZF3-mNeonGreen reporter cell line); assay type: cell-based; settings: HEK 293T IKZF3-mNeonGreen reporter, 24 hours incubation
T4 construct: Leu-Asp junction (codons ctcgac before the linker); mScarlet (behind P2A) (C, cleaved yes); expressed in transfected cells
T4 sequence (Q96SW2 whole entry partner): as the sequence (Q96SW2 whole entry) above
T4 sequence (Q16531 whole entry partner): as the sequence (Q16531 whole entry partner) above
T4 sequence (Q9UKT9 whole entry): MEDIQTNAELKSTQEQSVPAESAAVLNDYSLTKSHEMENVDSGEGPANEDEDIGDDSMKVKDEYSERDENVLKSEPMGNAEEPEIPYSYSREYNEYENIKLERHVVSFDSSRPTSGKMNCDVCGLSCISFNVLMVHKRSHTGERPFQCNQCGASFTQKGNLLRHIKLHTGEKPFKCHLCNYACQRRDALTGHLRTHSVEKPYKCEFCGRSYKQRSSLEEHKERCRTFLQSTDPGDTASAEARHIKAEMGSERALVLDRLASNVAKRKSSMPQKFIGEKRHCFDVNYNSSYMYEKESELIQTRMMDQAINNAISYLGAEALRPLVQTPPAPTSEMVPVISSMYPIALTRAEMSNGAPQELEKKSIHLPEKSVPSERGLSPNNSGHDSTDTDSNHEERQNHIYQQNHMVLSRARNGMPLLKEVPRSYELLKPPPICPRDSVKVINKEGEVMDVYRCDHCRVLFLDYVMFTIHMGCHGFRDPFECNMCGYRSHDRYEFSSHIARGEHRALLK
Procedure, shortened: as §1

IKZF2 (Helios) [3] = biological target: T5, IKZF2 (Helios) (Homo sapiens, UniProt Q96SW2+Q9UKS7); assay: IKZF2 reporter degradation assay (HEK 293T IKZF2-mNeonGreen reporter cell line); assay type: cell-based; settings: @ 1 μM, HEK 293T IKZF2-mNeonGreen reporter, 24 hours incubation; for inhibition at 1 µM: HEK-293T, 24 h
T5 construct: Leu-Asp junction (codons ctcgac before the linker); mScarlet (behind P2A) (C, cleaved yes); expressed in transfected cells
T5 sequence (Q9UKS7 whole entry): as the sequence (Q9UKS7 whole entry) above
T5 sequence (Q96SW2 whole entry): as the sequence (Q96SW2 whole entry) above
T5 sequence (Q16531 whole entry partner): as the sequence (Q16531 whole entry partner) above
Procedure, shortened: as §1

SMILES | pEC50 [1] | DC50 (IKZF1 (Ikaros)) | DC50 (IKZF2 (Helios) [2]) | DC50 (IKZF3 (Aiolos)) | IKZF2 % Degradation @ 1 μM (IKZF2 (Helios) [3]) | inhibition at 1 µM (IKZF2 (Helios) [3]) | IKZF3 % Degradation @ 1 μM (IKZF3 (Aiolos); @ 1 μM)
Cc1cnc(C2CN([C@H]3CCCC[C@@H]3Oc3ccc4c(c3)CN(C3CCC(=O)NC3=O)C4=O)C2)o1 (mixture of isomers) [Compound 175-B, Rac-3-(5-(((trans)-2-(3-(5-methyloxazol-2-yl)azetidin-1-yl)cyclohexyl)oxy)-1-oxoisoindolin-2-yl)piperidine-2,6-dione] | 7.66 | > 30 µM | > 30 µM | > 30 µM |  |  | 
O=C1CCC(N2Cc3cc(O[C@H]4CCCC[C@@H]4N4CC(c5cncc(Cl)c5)C4)ccc3C2=O)C(=O)N1 (mixture of isomers) [Compound 168-B, Rac-3-(5-(((trans)-2-(3-(5-chloropyridin-3-yl)azetidin-1-yl)cyclohexyl)oxy)-1-oxoisoindolin-2-yl)piperidine-2,6-dione] | 7.32 | > 30 µM | > 30 µM | > 30 µM |  |  | 
O=C1NC(=O)C2(N3Cc4cc(O[C@@H]5CCCC[C@@H]5N5CC(c6ncc(Cl)cn6)C5)ccc4C3=O)CC1C2 (racemic) [Compound 171-B, Rac-1-(5-(((cis)-2-(3-(5-chloropyrimidin-2-yl)azetidin-1-yl)cyclohexyl)oxy)-1-oxoisoindolin-2-yl)-3-azabicyclo[3.1.1]heptane-2,4-dione] | < 5.00 | ≥ 30 µM | > 30 µM | > 30 µM |  |  | 
O=C1CCC(N2Cc3cc(O[C@H]4CCCC[C@@H]4N4CC(c5cc(Cl)ccn5)C4)ccc3C2=O)C(=O)N1 (mixture of isomers) [Compound 166-B, Rac-3-(5-(((trans)-2-(3-(4-chloropyridin-2-yl)azetidin-1-yl)cyclohexyl)oxy)-1-oxoisoindolin-2-yl)piperidine-2,6-dione] | 7.51 | > 30 µM | > 30 µM | > 30 µM |  |  | 
O=C1NC(=O)C2(N3Cc4cc(O[C@H]5CCCC[C@@H]5N5CC(c6ncc(Cl)cn6)C5)ccc4C3=O)CC1C2 (racemic) [Compound 172-B, Rac-1-(5-(((trans)-2-(3-(5-chloropyrimidin-2-yl)azetidin-1-yl)cyclohexyl)oxy)-1-oxoisoindolin-2-yl)-3-azabicyclo[3.1.1]heptane-2,4-dione] | < 5.00 | > 30 µM | > 30 µM | > 30 µM |  |  | 
O=C1CCC(N2Cc3cc(O[C@H]4CCCC[C@@H]4N4CC(c5ncncc5Cl)C4)ccc3C2=O)C(=O)N1 (single isomer, unassigned) [Compound 93-B] | 7.19 |  | 0.021 µM | > 30 µM | 78% |  | 
Cc1cnccc1C1CN([C@H]2CCCC[C@@H]2Oc2ccc3c(c2)CN(C2CCC(=O)NC2=O)C3=O)C1 (single isomer, unassigned) [Compound 112-B] | 7.70 |  | 0.012 µM | > 30 µM |  | 67.1% | 
O=C1CCC(N2Cc3cc(OC4CCCCC4N4CC(c5ccnnc5)C4)ccc3C2=O)C(=O)N1 (centres unmarked) [Compound 143-B, 3-(1-oxo-5-((2-(3-(pyridazin-4-yl)azetidin-1-yl)cyclohexyl)oxy)isoindolin-2-yl)piperidine-2,6-dione] | 6.61 |  | 0.581 µM | > 30 µM |  | 20.4% | 
O=C1CCC(N2Cc3cc(OC4CCCCC4N4CC(C(=O)N5CCCCC5)C4)ccc3C2=O)C(=O)N1 (single isomer, unassigned) [Compound 22-A, 3-(1-oxo-5-((2-(3-(piperidine-1-carbonyl)azetidin-1-yl)cyclohexyl)oxy)isoindolin-2-yl)piperidine-2,6-dione] | 7.51 |  | 0.011 µM | > 30 µM |  | 75.9% | 
O=C1CCC(N2Cc3cc(O[C@H]4CCCC[C@@H]4N4CC(c5ccc6ccccc6n5)C4)ccc3C2=O)C(=O)N1 (single isomer, unassigned) [Compound 90-B] | 8.22 |  | 0.001 µM | > 30 µM | 87.1% |  | 
O=C1CCC(N2Cc3cc(O[C@H]4CCCC[C@@H]4N4CC(C5CCN(C(=O)c6ccccc6)CC5)C4)ccc3C2=O)C(=O)N1 (stereo partly drawn) [Compound 24-A, 3-(5-{[(1S,2S)-2-[3-(1-benzoylpiperidin-4-yl)azetidin-1-yl]cyclohexyl]oxy}-1-oxo-2,3-dihydro-1H-isoindol-2-yl)piperidine-2,6-dione] | 7.89 |  | 0.006 µM | > 30 µM |  | 76.7% | 
O=C1CCC(N2Cc3cc(O[C@H]4CCCC[C@@H]4N4CC(c5ccc(C(F)(F)F)cn5)C4)ccc3C2=O)C(=O)N1 (single isomer, unassigned) [Compound 131-B] | 7.68 |  | 0.005 µM | 0.0414 µM | 94.1% |  | 34.3%
O=C1CCC(N2Cc3cc(O[C@H]4CCCC[C@@H]4N4CC(c5ccc6ccccc6n5)C4)ccc3C2=O)C(=O)N1 (mixture of isomers) [Compound 152-B, Rac-3-(1-oxo-5-(((trans)-2-(3-(quinolin-2-yl)azetidin-1-yl)cyclohexyl)oxy)isoindolin-2-yl)piperidine-2,6-dione] | 8.52 |  | 0.041 µM | > 30 µM |  | 43.9% | 
O=C1CCC(N2Cc3cc(O[C@H]4CCCC[C@@H]4N4CC(c5cncc(Cl)c5)C4)ccc3C2=O)C(=O)N1 (single isomer, unassigned) [Compound 116-B] | 8.22 |  | 0.004 µM | > 30 µM |  | 73.7% | 
O=C1CCC(N2Cc3cc(O[C@H]4CCCC[C@@H]4N4CC(c5ncc(Br)cn5)C4)ccc3C2=O)C(=O)N1 (mixture of isomers) [Compound 137-B, Rac-3-(5-(((trans)-2-(3-(5-bromopyrimidin-2-yl)azetidin-1-yl)cyclohexyl)oxy)-1-oxoisoindolin-2-yl)piperidine-2,6-dione] | 7.42 |  | 0.049 µM | > 30 µM |  | 59.3% | 
O=C1CCC(N2Cc3cc(O[C@H]4CCCC[C@@H]4N4CC(c5ccncc5Cl)C4)ccc3C2=O)C(=O)N1 (single isomer, unassigned) [Compound 95-B] | 7.52 |  | 0.023 µM | > 30 µM |  | 77.8% | 
O=C1CCC(N2Cc3cc(O[C@H]4CCCC[C@@H]4N4CC(c5ncncc5Cl)C4)ccc3C2=O)C(=O)N1 (single isomer, unassigned) [Compound 92-B] | 7.92 |  | 0.007 µM | > 30 µM |  | 81.7% | 
O=C1CCC(N2Cc3cc(OC4CCCC4N4CC(c5c[nH]c6ccccc56)C4)ccc3C2=O)C(=O)N1 (centres unmarked) [Compound 181-B, 3-(5-((2-(3-(1H-indol-3-yl)azetidin-1-yl)cyclopentyl)oxy)-1-oxoisoindolin-2-yl)piperidine-2,6-dione] | 7.89 |  | 0.034 µM | > 30 µM |  | < 30% | 
O=C1CCC(N2Cc3cc(O[C@H]4CCCC[C@@H]4N4CC(c5ccncc5F)C4)ccc3C2=O)C(=O)N1 (single isomer, unassigned) [Compound 103-B] | 7.23 |  | 0.018 µM | > 30 µM | 69.9% |  | 
